Reference: patent US20200385396A1, “Compond for treatment or prevention of obesity or diseases related to obesity, and application thereof” (SHANGHAI INSTITUTES FOR BIOLOGICAL SCIENCES, CHINESE …, priority 2017, published 2020)

Tests used:
mice = assay: Inhibition of food intake in mice by HLY72/HLY78 derivatives; type: in vivo, mouse; details: for inhibition of food intake in mice / activity compared with HLY72: intraperitoneal, 75 umol/kg; for activity compared with HLY72 / activity relative to Hly72 / effective concentration (EC50) relative to HLY72: food intake; for activity relative to Hly72 / effective concentration (EC50) relative to HLY72: compounds 7.5 umol/kg vs Hly72 75 umol/kg; for effective concentration (EC50) relative to HLY72: 5-6 mice per group
Protocol: All compounds are injected intraperitoneally with a concentration of 75 umol/kg (20 mg/kg of Hly72 equals 75 umol/kg). One-way ANOVA statistical analysis, *: P<0.05, **: P⋅<0.01, ***: P<0.001.
All compounds are injected intraperitoneally at a concentration of 75 umol/kg (20 mg/kg of Hly72 equals 75 umol/kg). One-way ANOVA statistics Analysis, *: P<0.05, **: P⋅<0.01, ***: P<0.001.
Intraperitoneal injection of Hly72 at a concentration of 75 umol/kg (20 mg/kg of Hly72 equals 75 umol/kg), Hgsy-98, Hybj-12a, Hybj-13a are all 7.5 umol/kg. One-way ANOVA statistical analysis, *: P<0.05, **: P⋅<0.01, ***: P<0.001.
The next question we are very concerned about is whether HLY78 has similar functions to NUCB2 protein in mice. Up to now, the most classic function reported for NUCB2 protein is to reduce the food intake of mice at night. Therefore, the experiment was designed: 20 mg/kg of HLY78 was injected intraperitoneally within two hours before turning off the lights at night, and then the food intake of the mice was measured at different time points (0-3 h, 0-6 h, 0-12 h, 0-24 h). […] During the three days of the adaptive injection period before HLY78 injection, both groups of mice were injected with DMSO. On the day of injection of HLY78 and the two days before the injection of DMSO, the body weight of the two groups of mice is also the same (FIG. 2b). […]
Experimental methods were the same as in Examples 2 and 4.
Three compounds of Hgsy-98, Hybj-12a and Hybj-13a were selected for re-experiment (5-6 mice per group).

Solubility (Table C) = type: physicochemical; details: solvent named in Table C

Row | Solubility (Solubility (Table C)) | SMILES | inhibition of food intake in mice (mice) | further results
1 | DMSO | CCc1cccc2c1N(C)Cc1cc(OC)ccc1-2 [Hcj12] | obvious effects | –
2 | DMSO | CCN1Cc2cc(O)c(OC)cc2-c2cccc(C)c21 [Hcj44-d] | – | –
3 | DMSO | C#CCOc1cc2c(cc1OCC#C)-c1cccc(C)c1N(CC)C2 [Hcj46-d] | – | –
4 | DMSO | COc1cc2c(cc1OC)-c1cccc(C)c1NC2 [Hcj92-a] | – | –
5 | DMSO | CCn1c(=O)c2cc(OC)c(OC)cc2c2cccc(CO)c21 [Hgsy-36] | obvious effects | –
6 | DMSO | CCCCn1c(=O)c2cc(OC)c(OC)cc2c2cccc(CO)c21 [Hgsy-43] | – | –
7 | DMSO | CCCCN1Cc2cc(OC)c(OC)cc2-c2cccc(CO)c21 [Hgsy-44] | – | –
8 | DMSO | CCN1Cc2cc(OC)c(OC)cc2-c2cccc(COC(C)=O)c21 [Hgsy-47] | – | –
9 | DMSO | CCN1Cc2cc(OC)c(OC)cc2-c2cccc(CO)c21 [Hgsy-48] | – | –
10 | DMSO | CCCCn1c(=O)c2cc(OC)c(OC)cc2c2cccc(C=O)c21 [Hgsy-50] | obvious effects | activity compared with HLY72 (mice): significantly better
11 | DMSO | CCCCn1c(=O)c2cc(OC)c(OC)cc2c2cccc(C(C)O)c21 (centres unmarked) [Hgsy-53] | – | –
12 | DMSO | CCCCN1Cc2cc(OC)c(OC)cc2-c2cccc(C(C)O)c21 (centres unmarked) [Hgsy-55] | – | –
13 | DMSO | C=Cc1cccc2c3cc(OC)c(OC)cc3c(=O)n(C)c12 [Hgsy-58] | – | –
14 | DMSO | COc1cc2c(cc1OC)-c1cccc(C(C)O)c1N(C)C2 (centres unmarked) [Hgsy-59] | – | –
15 | DMSO | COc1cc2c(cc1OC)-c1cccc(OC)c1N(C)C2 [Hgsy-60] | – | –
16 | DMSO | CCCN1Cc2cc(OC)ccc2-c2cccc(C(C)O)c21 (centres unmarked) [Hgsy-66] | – | –
17 | DMSO | C/C=C/c1cccc2c1N(C)Cc1cc(OC)c(OC)cc1-2 [Hgsy-78] | obvious effects | –
18 | DMSO | C/C=C/c1cccc2c3cc(OC)c(OC)cc3c(=O)n(CCCC)c12 [Hgsy-80] | obvious effects | activity compared with HLY72 (mice): significantly better
19 | DMSO | C/C=C/c1cccc2c1N(CCCC)Cc1cc(OC)c(OC)cc1-2 [Hgsy-86] | obvious effects | –
20 | DMSO | C/C=C/c1cccc2c1N(CCCC)Cc1cc(OC)ccc1-2 [Hgsy-98] | – | activity compared with HLY72 (mice): significantly better; activity relative to Hly72 (mice): about 10 times; effective concentration (EC50) relative to HLY72 (mice): one tenth
21 | DMSO | C=Cc1cccc2c1N(C)Cc1cc(OC)c(OC)cc1-2 [Hybj-1a] | obvious effects | –
22 | DMSO | C=Cc1cccc2c1N(CCCCCC)Cc1cc3c(cc1-2)OCO3 [Hybj-9a] | obvious effects | –

More lines, now with the values behind:

Row | SMILES | Solubility (Solubility (Table C)) | inhibition of food intake in mice (mice) | further results
23 | COc1ccc2c(c1)CN(C)c1c(C)cccc1-2 [Hcj15] | DMSO | – | –
24 | Cc1cccc2c1N(C)Cc1cc(O)ccc1-2 [Hcj16] | DMSO | obvious effects | –
25 | C#CCOc1ccc2c(c1)CN(C)c1c(C)cccc1-2 [Hcj16d-a] | DMSO | – | –
26 | CCN1Cc2cc(O)ccc2-c2cccc(C)c21 [Hcj36] | DMSO | – | –
27 | Cc1cccc2c1N(C)Cc1cc(OCc3cc4cc(Cl)ccc4s3)ccc1-2 [Hcj194-d] | DMSO | obvious effects | –
28 | Cc1cccc2c1N(C)Cc1cc(OCc3cc(C)n(C)n3)ccc1-2 [Hcj221d] | DMSO | – | –
29 | C=CC(O)c1cccc2c3ccc(OC)cc3c(=O)n(CC)c12 (centres unmarked) [Hgsy-3] | DMSO | – | –
30 | C=CC(O)c1cccc2c3cc(OC)c(OC)cc3c(=O)n(CC)c12 (centres unmarked) [Hgsy-25] | DMSO | – | –
31 | CCn1c(=O)c2cc(OC)ccc2c2cccc(CO)c21 [Hgsy-31] | DMSO | – | –
32 | CCn1c(=O)c2cc(OC)ccc2c2cccc(OC)c21 [Hgsy-32] | DMSO | – | –
33 | COc1cc2c(=O)n(C)c3c(OC)cccc3c2cc1OC [Hgsy-35] | DMSO | obvious effects | –
34 | CCn1c(=O)c2cc(OC)c(OC)cc2c2cccc(C=O)c21 [Hgsy-51] | DMSO | – | –
35 | COc1cc2c(=O)n(C)c3c(C(C)O)cccc3c2cc1OC (centres unmarked) [Hgsy-56] | DMSO | – | –
36 | COc1cc2c(=O)n(C)c3c(C(C)=O)cccc3c2cc1OC [Hgsy-57] | DMSO | – | –
37 | CCn1c(=O)c2cc(OC)ccc2c2cccc(C(C)O)c21 (centres unmarked) [Hgsy-62] | DMSO | – | –
38 | CCCn1c(=O)c2cc(OC)ccc2c2cccc(C(C)O)c21 (centres unmarked) [Hgsy-64] | DMSO | – | –
39 | C=Cc1cccc2c3ccc(OC)cc3c(=O)n(CC)c12 [Hgsy-67] | DMSO | – | –
40 | C=Cc1cccc2c3ccc(OC)cc3c(=O)n(CCC)c12 [Hgsy-68] | DMSO | – | –
41 | CCn1c(=O)c2cc(OC)c(OC)cc2c2cccc(C3OCCO3)c21 [Hgsy-69] | DMSO | – | –
42 | C/C=C/c1cccc2c3cc(OC)c(OC)cc3c(=O)n(C)c12 [Hgsy-75] | DMSO | – | –
43 | C/C=C/c1cccc2c3ccc(OC)cc3c(=O)n(C)c12 [Hgsy-89] | DMSO | – | –
44 | C/C=C/c1cccc2c1N(C)Cc1cc(OC)ccc1-2 [Hgsy-92-1] | DMSO | obvious effects | –
45 | C/C=C/c1cccc2c3ccc(OC)cc3c(=O)n(CCCC)c12 [Hgsy-97] | DMSO | – | –
46 | C=Cc1cccc2c1N(CCCCCCCCCCCCCCCCCC)Cc1cc3c(cc1-2)OCO3 [Hyb-17a] | DMSO | obvious effects | activity compared with HLY72 (mice): significantly better
47 | C=Cc1cccc2c1N(C)Cc1cc(OCC)c(OCC)cc1-2 [Hybj-2a] | – | obvious effects | –
48 | C=Cc1cccc2c1N(C)Cc1cc(OCCCC)c(OCCCC)cc1-2 [Hybj-3a] | – | obvious effects | –
49 | C=Cc1cccc2c1N(CCCCCCCCCCCC)Cc1cc3c(cc1-2)OCO3 [Hybj-13a] | DMSO | obvious effects | activity compared with HLY72 (mice): significantly better; activity relative to Hly72 (mice): about 10 times; effective concentration (EC50) relative to HLY72 (mice): one tenth
50 | C=Cc1cccc2c1N(CCCCCCCCCC)Cc1cc3c(cc1-2)OCO3 [Hyj-12a] | DMSO | obvious effects | activity compared with HLY72 (mice): significantly better; activity relative to Hly72 (mice): 30-40 times; effective concentration (EC50) relative to HLY72 (mice): one tenth
